The text below walks through data of US4267192A, “Method for treating inflammation” (priority 1980, dated 1981).

Series [1] has as its system polyarthritis induced by Mycobacterium butyricum or tuberculosis in rats. Particulars: rat, oral 25.0 mg/kg daily, Table 3 group b.
Experimental: Polyarthritis is induced in groups of 6-10 Sprague-Dawley rats weighing between 180-220 g. by a subcutaneous injection into the right paw of dessicated Mycobacterium butyricum or tuberculosis (0.5 mg/0.1 ml.) suspended in light mineral oil. […] Both hind paw volumes (ml.) are measured by mercury plethysmograph on day 0 or at the time of injection of the complete adjuvant. Increases in paw volume (viz. edema) are determined for both paws on days 4 and 16. The change in body weight from day 0 to day 16 is also calculated. Statistical analysis of differences in paw edemas and body weight is performed by using the unpaired. Student's t-test.
The conditions of series [2]: background; in words; cited from earlier work.

The structures appear in SMILES notation.

With `CCCCC1C(=O)N(c2ccccc2)N(c2ccccc2)C1=O` [Phenylbutazone, phenylbutazone, reference compound], in series [1], the “% Change of Left Paw Edema at Day 16” value was -39%, the “% Change of Right Paw Edema at Day 4” value was -44% and the “Change In Body Weight (mean ± S.E.) 0-16 days” value is 24.0 ± 6.3. Also, in series [1] (mean ± S.E.), the “Increase in Left Paw Volume (ml.) 0-16 days” value was 0.45 ± .13 mL and the “Increase in Right Paw Volume (ml.) 0-4 days” value is 1.04 ± .05 mL. Besides, the bone marrow depression result in series [2] was “can cause bone marrow depression”.
